As usually defined, the melting point is the temperature, or range, at which the solid turns liquid.

Data on one molecule can be found in patent publication US20140084216A1 (Merck Patent GmbH, priority 2011, published 2014).

In turn, `C=CC(=O)OCCN(CCOC(=O)C=C)c1ccc(N=Nc2snc(C)c2C#N)c(NC(C)=O)c1` [Example 5, Acrylic acid 2-[{3-acetylamino-4-(4-cyano-3-methylisothiazol-5-ylazo)-phenyl}-{2-acryloyloxyethyl}-amino]-ethyl ester] displayed a melting point of 92 to 94 °C.
